From US20080200635A1, “POLYSILANE COMPOUND AND SYNTHESIS METHOD, ULTRAVIOLET-RAY CURABLE INK COMPOSITION, INKJET RECORDING METHOD AND APPARATUS, AND INK CONTAINER” (SEIKO EPSON CORPORATION, priority 2007, published 2008)

Legend:
[1] = Viscosity of monomers at 25° C.; type: physicochemical; details: measured value at 25° C.
Experimental: The viscosities in the foregoing table are a measured value at 25° C.

[2] = primary irritation index; cited from earlier work

Compound | Viscosity [1] [mPa · s] | P.I.I. [2]
C=C(C)C(=O)OCCCCOC(=O)C(=C)C [1,4-Butanediol dimethacrylate] | 7 | 2.0
C=C(C)C(=O)OCCCCCCOC(=O)C(=C)C [1,6-Hexanediol dimethacrylate] | 6 | 0.5
C=CC(=O)OCCCCCCCCCOC(=O)C=C [1,9-Nonanediol diacrylate] | 21 | 2.0
C=C(C)C(=O)OCC(O)COC(=O)C(=C)C [2-Hydroxy-1,3-dimethacryloxypropane] | 37 | 0.6
C=C(C)C(=O)OCC1COC(C)(CC)O1 (centres unmarked) [(2-Methyl-2-ethyl-1,3-dioxolan-4-yl)methyl methacrylate] | 5.1 | 1.3
C=CC(=O)OCC1COC(C)(CC(C)C)O1 (centres unmarked) [(2-Methyl-2-isobutyl-1,3-dioxolan-4-yl)methyl acrylate] | 5.3 | 1.0
C=CC(=O)N1CCOCC1 [Acryloyl morpholine] | 12 | 
C=C(C)C(=O)OCCOC(=O)C(=C)C [Ethylene glycol dimethacrylate] | 3 | 0.6
C=CC(=O)OCCOCCOC [Methoxy diethylene glycol monoacrylate] | 2 | 0.7
C=CC(=O)OCCOc1ccccc1 [Phenoxyethyl acrylate] | 3.3 | 1.7
C=CC(=O)OCC(C)OCC(C)OCC(C)OC(=O)C=C (centres unmarked) [Tripropylene glycol diacrylate] | 12 | 1.6

Now from value to compound, other results behind:

Viscosity [1] [mPa · s] | Compound | P.I.I. [2]
5 | C=C(C)C(=O)OCCOCCOC(=O)C(=C)C [Diethylene glycol dimethacrylate] | 0.5
2.6 | C=CC(=O)O[C@@H]1C[C@H]2CC[C@]1(C)C2(C)C [Isobonyl acrylate] | 0.6
7 | C=C(C)C(=O)OCC(C)(C)COC(=O)C(=C)C [Neopentyl glycol dimethacrylate] | 0.0
14 | C=C(C)C(=O)OCCOCCOCCOCCOC(=O)C(=C)C [Tetraethylene glycol dimethacrylate] | 0.5
42 | C=C(C)C(=O)OCC(CC)(COC(=O)C(=C)C)COC(=O)C(=C)C [Trimethylolpropane trimethacrylate] | 0.8
75 | Glycerin PO-modified triacrylate | 
58 | Polyethylene glycol #400 diacrylate | 0.4
60 | Trimethylolpropane PO-modified triacrylate | 0.1
55 | Trimethylolpropane modified triacrylate | 1.5
